From patent publication US20140057915A1, “KINASE INHIBITORS” (TOPIVERT PHARMA LIMITED, priority 2012, published 2014)
Where two headings read alike, the source gives them in different places.

Assays:
IFN gamma release, PBMCs = assay: IFN gamma release in CD3/CD28 stimulated PBMC cells; type: cell-based; details: Homo sapiens, read-out: IC50 Values for Inhibition of Cytokine Release, PBMCs, IFNγ
B-Raf = B-Raf (Homo sapiens, UniProt P15056); assay: Enzyme binding assay (Kinomescan)
Experimental: Enzyme Binding Assays (Kinomescan)
The kinase enzyme binding activities of compounds disclosed herein were determined using a proprietary assay which measures active site-directed competition binding to an immobilized ligand (Fabian, M. A. et al., Nature Biotechnol., 2005, 23:329-336). These assays were conducted by DiscoverX (formerly Ambit; San Diego, Calif.). The percentage inhibition produced by incubation with a test compound is calculated relative to the non-inhibited control.

BDF1 mice = assay: TNBS-induced colitis in mice; type: in vivo, mouse; details: for inflammatory cell infiltrate in the reticular and lamina propria zones / activity in the in vivo model of colonic inflammation (histopathology analysis): TNBS; for activity in the in vivo model of colonic inflammation (histopathology analysis): 2 days; for ulcer grade and epithelial repair compared to the vehicle control: dosed orally at 5 mg/kg
Experimental: (C) TNBS-Induced Colitis in Mice […] On Day 0 of the study TNBS (200 μL) is administered intra-colonically via a plastic catheter followed by BID dosing of the vehicle, reference or test compound for 2 or 4 days. During the study animals are weighed every day and stool observations are made and recorded as a score, based on stool consistency. At the time of sacrifice on Day 2 (or Day 4) the large intestine is removed and the length and weight recorded. Sections of the colon are taken for either MPO analysis to determine neutrophil infiltration or for histopathology involving scoring to determine disease severity.

[1] = Hepatic microsomal stability; type: in vitro ADME, human; details: for Mean hepatic extraction ratio (Eh) / microsomal CLint at 0.1 μM: human hepatic microsomes, arithmetic mean of two experiments; for microsomal CLint at 0.1 μM: pooled liver microsomes, read-out: Mean intrinsic clearance; for hepatic clearance: summary of Tables 9a and 9b (microsomes and hepatocytes; human, dog, rat)
Experimental: (§1) Hepatic Microsomal Stability
(§2) • Microsomal stability assays were performed with incubations of test compounds at 0.1 μM (n=2, final DMSO concentration 0.25%), and carried out using pooled human, dog and rat hepatic microsomes from Xenotech (Lots 1210153, 0810143 and 1110042, respectively) at 0.25 mg protein/mL in the presence of co-factor, NADPH. The incubations were performed at 37° C. with 100 μL aliquots taken from the incubation, at 0, 2, 5, 10 and 20 minutes and reactions terminated by addition of 100 μL of acetonitrile containing carbamazepine as analytical internal standard. […] Half-life values were calculated from the relationship
(§3) where λ was the slope of the Ln concentration vs time curve. • The in vitro intrinsic clearance, CIint (mL/min/kg), was calculated and scaled to hepatic extraction ratios using the following scaling parameters and formulae.
(§4) CIint(tissue clearance) mL/min/kg=[0.693/t½(min)]×[1/microsomal protein concentration mg/mL]×[mg microsomes/g liver]×[g liver/kg body weight]
(§5) CIint(hepatic clearance) mL/min/kg=hepatic blood flow×CIint/(hepatic blood flow+CIint)
(§6) Hepatic extraction ratio(Eh)=CIint(hepatic clearance) mL/min/kg/hepatic blood flow(mL/min/kg)

[2] = Hepatic microsomal stability; type: in vitro ADME; details: arithmetic mean of two experiments; for microsomal CLint at 0.1 μM: pooled liver microsomes, read-out: Mean intrinsic clearance
Experimental: as §1, §2, §3, §4, §5, §6

[3] = Cryopreserved hepatocyte stability; type: in vitro ADME; details: arithmetic mean of two experiments; for hepatocyte CLint at 0.1 μM: read-out: Mean intrinsic clearance
Experimental: Cryopreserved Hepatocyte Stability
• Hepatocyte stability assays were performed with incubations of test compounds (0.1 μM initial concentration, n=2) carried out with pooled human, dog and rat cryopreserved hepatocytes from Celsis (Lot numbers RRW, KLI and WAP, respectively) at a cell density of 0.5 million cells/mL. The incubations were performed at 37° C. with 100 μL samples taken from the incubation, at 0, 10, 20, 45 and 90 minutes, and reactions terminated by addition of 100 μL of acetonitrile containing carbamazepine as analytical internal standard. […] Half-life values were calculated from the relationship
T1/2(min)=−0.693/λ • where λ was the slope of the Ln concentration vs time curve. • Standard compounds testosterone, midazolam and 4-methylumbelliferone are included in the assay design. These compounds give an indication of the metabolic capacity of the cryopreserved preparations for both Phase I and Phase II reactions. • In vitro intrinsic clearance (CIint), as μL/min/million cells was calculated by applying the following formula to the half-life values:
CIint(Tissue Clearance) mL/min/kg=[0.693/t½(min)]×[1/hepatocyte concentration(million cells/mL)]×[million cells/g liver]×[g liver/kg body weight]
CIint(Hepatic clearance) mL/min/kg=hepatic blood flow×CIint/(hepatic blood flow+CIint)
Hepatic extraction ratio(Eh)=CIint(Hepatic clearance) mL/min/kg/hepatic blood flow(mL/min/kg)

[4] = target: T1, human ether a go-go (hERG) channel (Homo sapiens, UniProt Q12809); assay: hERG inhibition (IonWorks patch clamp electrophysiology); type: cell-based; details: maximum final assay concentration 3 μM
T1 construct: a Chinese Hamster Lung cell line stably expressing the full length hERG channel
T1 sequence (Q12809 whole entry): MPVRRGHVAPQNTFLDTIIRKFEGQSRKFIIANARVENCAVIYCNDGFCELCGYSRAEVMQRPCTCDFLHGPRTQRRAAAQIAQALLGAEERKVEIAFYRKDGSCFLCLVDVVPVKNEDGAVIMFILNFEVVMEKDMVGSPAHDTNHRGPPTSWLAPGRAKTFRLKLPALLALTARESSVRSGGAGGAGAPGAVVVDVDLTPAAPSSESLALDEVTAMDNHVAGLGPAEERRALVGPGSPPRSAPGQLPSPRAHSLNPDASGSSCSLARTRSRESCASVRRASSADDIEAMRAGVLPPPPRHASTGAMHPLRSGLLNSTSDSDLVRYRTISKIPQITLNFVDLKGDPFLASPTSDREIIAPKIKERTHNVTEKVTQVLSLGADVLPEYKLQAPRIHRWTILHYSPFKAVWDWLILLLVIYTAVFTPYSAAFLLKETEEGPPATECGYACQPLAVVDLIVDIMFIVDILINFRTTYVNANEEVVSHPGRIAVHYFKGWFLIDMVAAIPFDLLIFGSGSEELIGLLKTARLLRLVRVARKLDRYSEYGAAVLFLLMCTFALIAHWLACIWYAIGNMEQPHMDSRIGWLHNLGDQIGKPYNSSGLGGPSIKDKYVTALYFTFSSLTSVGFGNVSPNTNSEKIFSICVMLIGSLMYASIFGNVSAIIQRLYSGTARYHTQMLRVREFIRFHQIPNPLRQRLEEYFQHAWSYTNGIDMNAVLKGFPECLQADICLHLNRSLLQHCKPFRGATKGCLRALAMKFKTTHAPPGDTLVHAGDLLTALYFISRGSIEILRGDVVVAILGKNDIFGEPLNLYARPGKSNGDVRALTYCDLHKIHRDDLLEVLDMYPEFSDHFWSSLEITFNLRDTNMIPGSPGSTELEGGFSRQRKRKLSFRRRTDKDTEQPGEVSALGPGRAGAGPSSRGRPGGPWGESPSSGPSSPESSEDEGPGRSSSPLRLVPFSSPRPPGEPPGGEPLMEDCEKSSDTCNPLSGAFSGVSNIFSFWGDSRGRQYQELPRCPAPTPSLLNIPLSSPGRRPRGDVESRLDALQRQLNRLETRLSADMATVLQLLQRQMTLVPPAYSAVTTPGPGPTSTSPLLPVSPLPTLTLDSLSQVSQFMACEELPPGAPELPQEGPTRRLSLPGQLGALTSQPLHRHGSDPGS
Experimental: Eight-point concentration curves were generated using serial 3-fold dilutions from the maximum final assay concentration (3 μM). Electrophysiological recordings were made from a Chinese Hamster Lung cell line stably expressing the full length hERG channel. Single cell ionic currents were measured in the perforated patch clamp configuration (100 μg/mL) amphotericin) at room temperature (21-23° C.) using an IonWorks Quattro instrument. The internal solution contained (mM): 140 KCl, 1 MgCl2, 1 EGTA, 20 HEPES and was buffered to pH 7.3. The external solution contained (mM):138 NaCl, 2.7 KCl, 0.9 CaCl2, 0.5 MgCl2, 8 Na2HPO4, 1.5 KH2PO4, also buffered to pH 7.3. Cells were clamped at a holding potential of −70 mV for 30 s and then stepped to +40 mV for 1 s. This was followed by a hyperpolarising step of 1s to −30 mV to evoke the hERG tail current. This sequence was repeated 5 times at a frequency of 0.25 Hz. Currents were measured from the tail step at the 5th pulse, and referenced to the holding current. Compounds were then incubated for 6-7 minutes prior to a second measurement of the hERG signal using an identical pulse train. Eight-point concentration curves were generated using serial 3-fold dilutions from the maximum final assay concentration (3 μM).

[5] = human cryopreserved hepatocytes
[6] = pooled cryopreserved hepatocytes, dog cryopreserved hepatocytes
[7] = pooled cryopreserved hepatocytes, rat cryopreserved hepatocytes
[8] = pooled cryopreserved human hepatocytes

Sequence of B-Raf (P15056 whole entry): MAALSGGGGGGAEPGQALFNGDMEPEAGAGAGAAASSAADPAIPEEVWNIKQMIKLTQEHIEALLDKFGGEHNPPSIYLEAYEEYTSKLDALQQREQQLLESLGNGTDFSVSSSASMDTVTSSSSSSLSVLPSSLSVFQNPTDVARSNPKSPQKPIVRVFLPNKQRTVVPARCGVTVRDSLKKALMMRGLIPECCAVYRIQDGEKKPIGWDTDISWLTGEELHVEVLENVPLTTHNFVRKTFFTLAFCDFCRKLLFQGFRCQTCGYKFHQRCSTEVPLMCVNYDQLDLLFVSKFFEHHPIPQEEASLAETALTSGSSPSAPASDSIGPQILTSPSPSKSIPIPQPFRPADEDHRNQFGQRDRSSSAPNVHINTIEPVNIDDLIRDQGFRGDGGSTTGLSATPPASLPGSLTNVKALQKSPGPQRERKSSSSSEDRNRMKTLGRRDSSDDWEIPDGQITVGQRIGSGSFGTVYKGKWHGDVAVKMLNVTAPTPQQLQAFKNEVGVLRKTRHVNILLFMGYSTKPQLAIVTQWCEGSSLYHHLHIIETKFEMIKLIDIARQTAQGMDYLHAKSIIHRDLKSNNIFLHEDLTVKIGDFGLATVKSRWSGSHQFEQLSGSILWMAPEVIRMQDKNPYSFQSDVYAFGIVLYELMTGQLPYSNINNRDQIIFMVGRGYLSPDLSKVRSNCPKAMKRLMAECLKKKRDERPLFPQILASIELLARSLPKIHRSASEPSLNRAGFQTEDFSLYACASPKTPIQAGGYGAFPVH

SMILES | IC50 (IFN gamma release, PBMCs) [nM] | inflammatory cell infiltrate in the reticular and lamina propria zones (BDF1 mice) | activity in the in vivo model of colonic inflammation (histopathology analysis) (BDF1 mice) | ulcer grade and epithelial repair compared to the vehicle control (BDF1 mice) | Mean hepatic extraction ratio (Eh) [1] | microsomal CLint at 0.1 μM [1] [µL/min/mg] | hepatic clearance [1] | Mean hepatic extraction ratio (Eh) ([2]; dog hepatic microsomes) | microsomal CLint at 0.1 μM ([2]; dog hepatic microsomes) [µL/min/mg] | microsomal CLint at 0.1 μM ([2]; rat hepatic microsomes) [µL/min/mg] | Mean hepatic extraction ratio (Eh) ([2]; rat hepatic microsomes) | Mean hepatic extraction ratio (Eh) ([3]; dog cryopreserved hepatocytes) | Mean hepatic extraction ratio (Eh) [3, 5] | hepatocyte CLint at 0.1 μM [3, 6] [µL/min/1e6 cells] | hepatocyte CLint at 0.1 μM [3, 7] [µL/min/1e6 cells] | hepatocyte CLint at 0.1 μM [3, 8] [µL/min/1e6 cells] | Mean hepatic extraction ratio (Eh) ([3]; rat cryopreserved hepatocytes) | IC50 [4] [nM] | further results
COc1cc(Nc2cc(Oc3ccc(NC(=O)Nc4cc(C(C)(C)C)nn4-c4ccc(C)cc4)c4ccccc34)ccn2)cc(C(=O)NCCN2CCOCC2)c1 [Example 1, 3-((4-((4-(3-(3-(tert-Butyl)-1-(p-tolyl)-1H-pyrazol-5-yl)ureido)naphthalen-1-yl)oxy)pyridin-2-yl)amino)-5-methoxy-N-(2-morpholinoethyl)benzamide] | 3 |  |  |  |  |  |  |  |  |  |  |  |  |  |  |  |  |  | 
COc1cc(Nc2nccc(Oc3ccc(NC(=O)Nc4cc(C(C)C)nn4-c4ccc(C)cc4)c4ccccc34)n2)cc(C(=O)NCCN2CCOCC2)c1 [Example 8, 3-((4-((4-(3-(3-Isopropyl-1-(p-tolyl)-1H-pyrazol-5-yl)ureido)naphthalen-1-yl)oxy)pyrimidin-2-yl)amino)-5-methoxy-N-(2-morpholinoethyl)benzamide] |  |  |  |  |  |  |  |  |  |  |  |  |  |  |  |  |  |  | inhibition at 0.5 µM (B-Raf; read-out: % Inhibition of kinase binding at 500 nM, B-Raf): 29%
COc1cc(Nc2nccc(Oc3ccc(NC(=O)Nc4cc(C(F)(F)C(F)(F)F)nn4-c4ccc(C)cc4)c4ccccc34)n2)cc(C(=O)NCCN2CCOCC2)c1 [Example 9] | 7.3 |  |  |  |  |  |  |  |  |  |  |  |  |  |  |  |  |  | 
C#Cc1cc(Nc2nccc(Oc3ccc(NC(=O)Nc4cc(C(C)C)nn4-c4ccc(C)cc4)c4ccccc34)n2)cc(C(=O)NCCN2CCOCC2)c1 [Example 46, 3-ethynyl-5-((4-((4-(3-(3-isopropyl-1-(p-tolyl)-1H-pyrazol-5-yl)ureido)naphthalen-1-yl)oxy)pyrimidin-2-yl)amino)-N-(2-morpholinoethyl)benzamide] | 2.7 | marked reduction | significant activity | marked improvements |  |  |  |  |  |  |  |  |  |  |  |  |  |  | 
C#Cc1cc(Nc2nccc(Oc3ccc(NC(=O)Nc4cc(C(C)(C)C)nn4-c4ccc(OC)cc4)c4ccccc34)n2)cc(C(=O)NCCN2CCOCC2)c1 [Example 77, 3-((4-((4-(3-(3-(tert-Butyl)-1-(4-methoxyphenyl)-1H-pyrazol-5-yl)ureido)-naphthalen-1-yl)oxy)pyrimidin-2-yl)amino)-5-ethynyl-N-(2-morpholinoethyl)benzamide] | 0.8 | marked reduction | significant activity | marked improvements | 0.94 | 308 | high hepatic clearance | 0.94 | 189 | 120 | 0.82 | 0.87 | 0.69 | 26 | 12 | 16 | 0.55 | > 3000 | effect on the binding of the kinase B-Raf to its standard ligand (B-Raf; KINOMEscan): did not have any effect on the binding
C#Cc1cc(Nc2nccc(Oc3ccc(NC(=O)Nc4cc(C(C)(C)C)nn4-c4ccc(N(C)C)cc4)c4ccccc34)n2)cc(C(=O)NCCN2CCOCC2)c1 [Example 80, 3-((4-((4-(3-(3-(tert-Butyl)-1-(4-(dimethylamino)phenyl)-1H-pyrazol-5-yl)ureido)naphthalen-1-yl)oxy)pyrimidin-2-yl)amino)-5-ethynyl-N-(2-morpholinoethyl)-benzamide] | 1.8 |  |  |  | 0.93 | 216 | high hepatic clearance | 0.91 | 146 | 91 | 0.77 | 0.73 | <0.61 | 11 | < 8 | < 11 | <0.44 | > 3000 | 
